Assay results from publication PMC6208908, “Field template-based design and biological evaluation of new sphingosine kinase 1 inhibitors” (Breast Cancer Research and Treatment, 2018).

Legend:
[1] = molecular target: T1, endogenous SK1 in MDA-MB-231 cells (Homo sapiens, UniProt Q9NYA1); experiment: SK1 activity in lysates of treated MDA-MB-231 cells; assay type: cell-based; details: 6 h
T1 construct: We treated MDA-MB-231 cells with 1 µM of compounds SK-A – SK-F and SKI-II as the positive control for 6 h; endogenous in cells; host or cells: MDA-MB-231
Protocol: After incubation, cells were washed with ice-cold phosphate-buffered saline (PBS) and harvested.
(§1) SK assay was performed using radiolabeling as previously described, in conditions favouring SK1 or SK2 activity as required.
Fig. 2 Inhibition of sphingosine kinase 1 in cell-free extract and in vitro. a 1 µM of compounds SK-A to SK-F and SKI-II (commercial inhibitor of SK used as a positive control) were incubated in the presence of recombinant SK1 extract (in excess), 1 µM of ATP, and 1 µM exogenous sphingosine for 1 h. b MDA-MB-231 cells were incubated with 1 µM of compounds SK-A to SK-F and SKI-II for 6 h. SK1 activity was measured as described in materials and methods. Columns, means of three independent experiments normalised to vehicle; bars, SEM. (ns, non-significant; *p < 0.05; **p < 0.01)
Reportedly, among human tumour cell lines, the breast cancer cell line MDA-MB-231 expresses high levels of SK activity. We treated MDA-MB-231 cells with 1 µM of compounds SK-A – SK-F and SKI-II as the positive control for 6 h and analysed SK1 activity in the cell lysates using SK1 activity assay.

recombinant SK2 = molecular target: T2, recombinant SK2 (Homo sapiens, UniProt Q9NRA0); experiment: SK2 activity assay with recombinant SK2 (high salt), Lineweaver-Burk; assay type: biochemical; details: Lineweaver-Burk plot, high salt (Figure S8B)
T2 sequence (Q9NRA0 1-654): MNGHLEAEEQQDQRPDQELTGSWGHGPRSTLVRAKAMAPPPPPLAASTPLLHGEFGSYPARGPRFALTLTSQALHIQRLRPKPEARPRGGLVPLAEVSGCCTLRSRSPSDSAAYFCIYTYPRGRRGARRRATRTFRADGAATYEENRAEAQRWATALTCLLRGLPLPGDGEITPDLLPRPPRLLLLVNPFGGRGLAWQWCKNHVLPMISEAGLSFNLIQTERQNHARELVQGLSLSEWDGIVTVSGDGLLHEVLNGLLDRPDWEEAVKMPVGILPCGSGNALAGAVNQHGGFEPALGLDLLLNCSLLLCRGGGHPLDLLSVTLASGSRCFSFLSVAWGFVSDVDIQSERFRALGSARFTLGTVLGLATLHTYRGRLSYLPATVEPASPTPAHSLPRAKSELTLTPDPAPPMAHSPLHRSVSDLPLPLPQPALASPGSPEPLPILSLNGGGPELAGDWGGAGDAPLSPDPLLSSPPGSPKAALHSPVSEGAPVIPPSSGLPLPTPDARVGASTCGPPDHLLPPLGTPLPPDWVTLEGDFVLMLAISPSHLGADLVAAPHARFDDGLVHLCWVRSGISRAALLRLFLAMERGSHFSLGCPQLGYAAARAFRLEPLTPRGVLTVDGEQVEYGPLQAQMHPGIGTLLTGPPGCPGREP
Protocol: as §1
SK1 activity was determined in the presence of triton X-100 and SK2 activity was measured in the presence of high salt concentrations, conditions that favour SK1 and SK2, respectively. […] Km for SK1 was 6.97 ± 1.20 µM, Vmax 98 ± 4 µM/min/mg protein and Ki for SK-F 0.46 ± 0.1 µM. […] Some SK inhibitors such as SKI-II were previously shown to induce proteasomal degradation of SK1 [48, 49].

SK1 protein = SK1 protein level (Figure S9); assay type: cell-based
MDA-MB-231 cells = experiment: MTT cell viability / proliferation assay; assay type: cell-based, human; details: for IC50: Homo sapiens
Protocol: Cellular viability was measured using the 3-(4,5-dimethylthiazol-2-yl)-2,5-diphenyltetrazolium bromide (MTT; 5 mg/ml) colorimetric assay as already described.
Fig. 4 Effect of compounds SK-A to SK-F on breast cancer cell viability. MDA-MB-231 cells were incubated with 1, 2, 5 and 10 µM of compounds SK-A to SK-F for up to 120 h. Cell proliferation was measured using MTT assay. Columns, means of three independent experiments normalised to control; bars, SEM. (*p < 0.05; **p < 0.01; ^§p < 0.001). IC50 levels for SK-F for 72, 96 and 120 h were 7, 4.5 and 3 µM, respectively

[2] = Liver function tests in treated mice; assay type: in vivo, BALB/c nude mice; details: 5 mg/kg each drug i.p. twice a week for 2 weeks, compared with DTX
Protocol: Breast cancer allografts were established in 6–8-week-old BALB/c nude mice by injection of 10^6 4T1 cells into their mammary pad. Two weeks after implantation, mice were randomised into treatment groups (n = 6/group) and treated twice a week for 2 weeks with intraperitoneal injections of dimethyl sulfoxide (DMSO), 5 mg/kg DTX, 5 mg/kg SK-F, 5 mg/kg DTX + 5 mg/kg SK-F. One day after the last treatment, all mice were euthanized and blood was collected. Tumour long and short radii were measured using calipers and tumour volume (v) was calculated using the formula v = 4/3 πab^2 (a – long radius, b – short radius). Mice and individual organs were weighed and primary tumours were then processed for analysis of SK1 activity as described above. Full blood count and liver function test analysis was done in the Hammersmith hospital biochemical lab.
Fig. 6 Liver function tests of mice treated with SK-F and docetaxel (DTX). Breast cancer allografts were established in BALB/c nude mice by injection of 4T1 cells into their mammary pad. Two weeks after implantation, mice were randomised into treatment groups (n = 6/group) and treated twice a week for two weeks with intraperitoneal injections of: DMSO, 5 mg/kg DTX, 5 mg/kg SK-F, 5 mg/kg DTX + 5 mg/kg SK-F. a Alanine transaminases (ALT). b Bilirubin. c Aspartate transaminase (AST). d Albumin. e Alkaline phosphatase (ALP). f Total protein. Columns, mean of n = 6 animals normalised to control; bars, SEM. (*p < 0.05; **p < 0.01)

T1 sequence (Q9NYA1 whole entry): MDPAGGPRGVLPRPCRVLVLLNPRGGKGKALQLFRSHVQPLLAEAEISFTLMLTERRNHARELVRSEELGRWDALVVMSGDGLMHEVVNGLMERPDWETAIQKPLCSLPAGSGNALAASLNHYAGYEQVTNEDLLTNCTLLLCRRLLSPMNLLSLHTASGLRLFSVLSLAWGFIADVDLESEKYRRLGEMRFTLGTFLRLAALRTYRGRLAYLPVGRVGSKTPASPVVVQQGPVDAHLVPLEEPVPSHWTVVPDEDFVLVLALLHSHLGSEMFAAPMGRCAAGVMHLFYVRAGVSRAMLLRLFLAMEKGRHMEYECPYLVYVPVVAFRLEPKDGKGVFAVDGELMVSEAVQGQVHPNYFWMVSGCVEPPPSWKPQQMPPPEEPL

SMILES: CCCCCCCCc1ccc(NC(=O)c2ccccc2)cc1 [SK-F]
- SK1 activity in cells versus vehicle ([1]; 1 µM): significantly decreased
- inhibition at 1 µM ([1]; read-out: inhibition of SK1 activity in vitro): 48.2%
- inhibition of SK2 (recombinant SK2): no inhibition
- effect on SK1 protein (SK1 protein): did not induce any change
- effect on MDA-MB-231 cancer cell proliferation (MDA-MB-231 cells; 1, 2, 5 and 10 µM, up to 120 h): highest effect
- IC50 (MDA-MB-231 cells; MDA-MB-231, 72 h): 7 µM
- IC50 (MDA-MB-231 cells; MDA-MB-231, 96 h): 4.5 µM
- IC50 (MDA-MB-231 cells; MDA-MB-231, 120 h): 3 µM
- liver function test toxicity profile [2]: milder toxicity profile
